Results as given in patent publication US8846652B2, “Therapeutic uses of steroidal compounds” (Hunter-Fleming Limited, priority 2005, dated 2014).
Peptide text beside a SMILES is read from it.

What was measured:
[1] = tested on: spared nerve injury (SNI) model of neuropathic pain; experiment: Spared nerve injury (SNI) model of neuropathic pain, mechanical allodynia by von Frey filaments; type: in vivo, mice; settings: daily oral gavage for two weeks, SNI lesion on day 8, thresholds measured at 2 pm over 7 days after SNI surgery
Protocol: All animals were fed standard chow and water ad libitum. Animal care and procedures were performed within the United Kingdom Home Office protocols and guidelines. Age (10-12 weeks, 25-30 g) matched adult mice were used in all experiments (n=8/genotype).
Mice were anaesthetised with Hypnorm (Fentanyl citrate 0.315 mg/ml+Fluanisone 10 mg/ml, Jansson):Hypnovel (Midazolam 5 mg/ml, Roche):water at a ratio of 1:1:2 at 4 μl/g. The recently described SNI model of neuropathic pain was used (Holmes et al (2003) Proc. Natl. Acad. Sci. U.S.A. 100 6180-6185). The spared nerve injury model (SNI), is performed by ligation of two branches of the sciatic nerve after it trifurcates, leaving one branch intact. […]
In all tests, the examiner was blind to the genotype of the mice. Mechanical thresholds were measured with a series of calibrated von Frey filaments (Stoeling) from 0.005 g to a maximum of 3.63 g. […] Mechanical sensitivity was assessed on each hind paw, employing the up-down testing paradigm to determine the threshold force required to elicit a withdrawal response to 50% of stimulations [F. E. Holmes, A. Bacon, R. J. Pope, P. A. Vanderplank, N. C. […]
11β-hydroxy-Δ4-androstene-3,17-dione was administered to 8 adult male mice aged 10-12 weeks of age daily at 9.00 am by oral gavage for two weeks. […] At 2 pm on the days when testing took place, mechanosensory thresholds were measured.

[2] = biological target: T1, GALR1 (Homo sapiens, UniProt P47211); settings: cited from earlier work
T1 sequence (P47211 1-349): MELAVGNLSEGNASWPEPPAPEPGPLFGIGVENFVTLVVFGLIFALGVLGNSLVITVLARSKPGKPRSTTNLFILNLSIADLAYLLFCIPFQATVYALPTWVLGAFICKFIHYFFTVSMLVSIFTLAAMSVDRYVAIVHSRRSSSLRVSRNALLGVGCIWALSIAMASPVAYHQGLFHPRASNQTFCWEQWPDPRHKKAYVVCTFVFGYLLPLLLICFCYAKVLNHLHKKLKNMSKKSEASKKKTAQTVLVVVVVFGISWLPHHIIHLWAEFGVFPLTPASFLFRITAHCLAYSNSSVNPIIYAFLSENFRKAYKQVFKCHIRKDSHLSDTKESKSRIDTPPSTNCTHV

[3] = biological target: T2, GALR2 (Homo sapiens, UniProt O43603); settings: cited from earlier work
T2 sequence (O43603 1-387): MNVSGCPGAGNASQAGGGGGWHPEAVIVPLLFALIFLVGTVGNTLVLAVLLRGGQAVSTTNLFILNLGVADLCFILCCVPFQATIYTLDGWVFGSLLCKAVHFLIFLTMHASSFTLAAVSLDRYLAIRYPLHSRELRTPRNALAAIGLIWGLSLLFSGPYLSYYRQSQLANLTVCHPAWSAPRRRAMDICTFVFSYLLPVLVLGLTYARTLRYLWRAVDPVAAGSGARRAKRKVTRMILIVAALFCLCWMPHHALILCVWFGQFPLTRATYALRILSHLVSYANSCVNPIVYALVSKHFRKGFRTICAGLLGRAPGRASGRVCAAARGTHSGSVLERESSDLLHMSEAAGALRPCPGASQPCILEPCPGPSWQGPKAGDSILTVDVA

C[C@]12CCC(=O)C=C1CC[C@@H]1[C@@H]2[C@@H](O)C[C@]2(C)C(=O)CC[C@@H]12 [11β-hydroxy-Δ4-androstene-3,17-dione]
mechanosensory allodynia (chronic pain behaviour) after SNI surgery [1]: markedly and significantly attenuated mechanosensory allodynia

Cc1cc(=O)oc2cc(NC(=O)[C@H](CCCCN)NC(=O)[C@H](CC3CCCCC3)NC(=O)OCC3c4ccccc4-c4ccccc43)ccc12 [galnon] (HELM PEPTIDE1{[O=C(OCC1c2ccccc2-c2ccccc21)[*:2]].[Cha].K.[Cc1cc(=O)oc2cc(N[*:1])ccc12]}$$$$V2.0)
agonistic activity at GALR1 [2]: equally activates and has agonistic activity
agonistic activity at GALR2 [3]: equally activates and has agonistic activity
